Measured values: the OligoGym collection
“And” between values parts separate entries of the source, which are not always exact repeats. Equal entries are not always repeated. After the bases stand the sugars from the 5' end (letter, count) and the backbone: PS all phosphorothioate, else s phosphorothioate and o phosphodiester by linkage. Methylation of C is not given here. e = 2'-O-(2-methoxyethyl) (MOE); k = constrained ethyl (cEt); d = 2'-deoxy (DNA); m = 2'-O-methyl

Target: HSD17B13
Settings: ASO, HepaRG

Sequence | target mRNA inhibition (1 µM) | further results
TTTTTAATACGACTTC (sugars k3 d10 k3, PS) | 52% | 
ATTCGAATTTCTTCAA (sugars k3 d10 k3, PS) | 65% | 
CCCTTTATGTCTTTGG (sugars k3 d10 k3, PS) | 35% | 
ATTATGTGATTGAGTT (sugars k3 d10 k3, PS) | 46% | 
ATCATATGCTAAGTGC (sugars k3 d10 k3, PS) | 73% | target mRNA inhibition (0.02 µM): 0%; target mRNA inhibition (0.078 µM): 11%; target mRNA inhibition (0.313 µM): 48%; target mRNA inhibition (1.25 µM): 71%; target mRNA inhibition (5 µM): 82%
CCAACTATGTAATAGG (sugars k3 d10 k3, PS) | 68% | 
CAAGTAGGAGTAGATG (sugars k3 d10 k3, PS) | 5% | 
AGCTATAGGTAGCTAA (sugars k3 d10 k3, PS) | 0% | 
TTTTACTGGGATACTA (sugars k3 d10 k3, PS) | 27% | 
TGTCTAAACATCTCTG (sugars k3 d9 k3 e1, PS) | 69% | 
TGAGAGAACTTATACA (sugars k3 d10 k3, PS) | 32% | 
TTAAAGACAGGGTGGT (sugars k3 d10 k3, PS) | 21% | 
TTCATAGTGGACTTCA (sugars k3 d10 k3, PS) | 51% | 
GACAGTAGATTTGGTA (sugars k3 d10 k3, PS) | 34% | 
TAGTCTTCAGCAAAGT (sugars kkdddddddddkekek, PS) | 35% | 
AGTAACTTTATTAACG (sugars k3 d10 k3, PS) | 12% | 
TGAACCCAGTATTCAC (sugars k3 d10 k3, PS) | 10% | 
ACATAGCTAACTCAGG (sugars k3 d10 k3, PS) | 38% | 
ATTGTTTAGCTGATAG (sugars k3 d10 k3, PS) | 61% | 
ACACTAATTTAGTCAA (sugars k3 d10 k3, PS) | 16% | 
TGACAATGGTTGATAG (sugars k3 d10 k3, PS) | 16% | 
AGTCTTAAACCTTCCC (sugars k3 d9 k3 e1, PS) | 61% | 
CACAAGTAAGGTAAAG (sugars kkdddddddddkekek, PS) | 38% | 
GGAAGATTAATCATAA (sugars k3 d10 k3, PS) | 32% | 
AGAAGTATGTGAACTC (sugars k3 d10 k3, PS) | 41% | 

Sequence | target mRNA inhibition (1 µM) | further results
ATAACTACAAGAGGTT (sugars kkdddddddddkekek, PS) | 46% | 
CACATATGTGAAGAGC (sugars k3 d10 k3, PS) | 71% | 
AGCTTTTGTCCACCTT (sugars k3 d9 k3 e1, PS) | 69% | 
CAGCAAAGTTTGGGCA (sugars k3 d10 k3, PS) | 37% | 
TCTTAAGGATCATTGC (sugars k3 d10 k3, PS) | 0% | 
GGCTAAACCCTGGAGC (sugars k3 d10 k3, PS) | 36% | 
ATCCTTGGTGCTGAGA (sugars k3 d10 k3, PS) | 13% | 
TATTAGAAGTCAGCCC (sugars k3 d10 k3, PS) | 27% | 
GTGATTGAGTTCTCCA (sugars k3 d10 k3, PS) | 80% | target mRNA inhibition (0.02 µM): 10%; target mRNA inhibition (0.078 µM): 14%; target mRNA inhibition (0.313 µM): 32%; target mRNA inhibition (1.25 µM): 73%; target mRNA inhibition (5 µM): 83%
TTTTTATTGGGCCCAA (sugars k3 d10 k3, PS) | 51% | 
ACTACATGACCTGGGT (sugars k3 d10 k3, PS) | 54% | 
TGTGATTGAGTTCTCC (sugars kkdddddddddkekek, PS) | 11% | 
TCTTTTTATAGACTGG (sugars k3 d10 k3, PS) | 82% | target mRNA inhibition (0.02 µM): 0%; target mRNA inhibition (0.078 µM): 0%; target mRNA inhibition (0.313 µM): 35%; target mRNA inhibition (1.25 µM): 55%; target mRNA inhibition (5 µM): 90%
ATCTTAAGATACCCAG (sugars kkdddddddddkekek, PS) | 45% | 
ACATCTCTGGGACCAA (sugars kkdddddddddkekek, PS) | 67% | 
TAGCTAAGTATACTTT (sugars k3 d10 k3, PS) | 10% | 
AAACATCTCTGGGACC (sugars k3 d1 m1 d8 k3, PS) | 66% | 
ACTAATTTAGTCAACT (sugars k3 d10 k3, PS) | 18% | 
TCTACCACATACGCAT (sugars k3 d10 k3, PS) | 55% | 
CCTAGATTCTACACTA (sugars k3 d10 k3, PS) | 14% | 
ACAACTGGAGGTATGT (sugars k3 d10 k3, PS) | 0% | 
GCTAAACCCTGGAGCA (sugars k3 d10 k3, PS) | 5% | 
ACGGTGATCAAATGTA (sugars kkdddddddddkekek, PS) | 33% | 
CATTAAGCTTAGTATA (sugars k3 d10 k3, PS) | 19% | 
AGCTGAGTGGATTACA (sugars k3 d10 k3, PS) | 29% | 

Sequence | target mRNA inhibition (1 µM) | further results
TGGTAATCTCTTCATC (sugars k3 d10 k3, PS) | 23% | 
AGTATGACAACTGGAG (sugars k3 d10 k3, PS) | 15% | 
GGTAAGCCCCATGCCA (sugars k3 d10 k3, PS) | 38% | 
GTAGCTTTTGTCCACC (sugars k3 d1 m1 d8 k3, PS) | 64% | 
TCCTGTGTTAGCTTTA (sugars k3 d9 k3 e1, PS) | 75% and 50% | target mRNA inhibition (0.02 µM): 0%; target mRNA inhibition (0.078 µM): 0%; target mRNA inhibition (0.313 µM): 34%; target mRNA inhibition (1.25 µM): 50%; target mRNA inhibition (5 µM): 81%
AAAAATTGGTTTCGAA (sugars k3 d10 k3, PS) | 13% | 
GAATAGCAAGCCAACA (sugars k3 d10 k3, PS) | 64% | target mRNA inhibition (0.02 µM): 0%; target mRNA inhibition (0.078 µM): 4%; target mRNA inhibition (0.313 µM): 12%; target mRNA inhibition (1.25 µM): 20%; target mRNA inhibition (5 µM): 40% and 50%
GCATTATTCACCACGA (sugars k3 d10 k3, PS) | 59% | 
GTATTCCATCTATCAG (sugars kkdddddddddkekek, PS) | 48% | 
ACATUAGCAAGCTAAG (sugars k3 d1 m1 d8 k3, PS) | 23% | 
GAATAGTCTTCAGCAA (sugars k3 d10 k3, PS) | 51% | 
CACTAATATTGAGGCA (sugars k3 d10 k3, PS) | 31% | 
TAAACCTTCCCTGTGT (sugars kkdddddddddkekek, PS) | 9% | 
GGTAGCTTTTGTCCAC (sugars k3 d10 k3, PS) | 66% | 
TGAGTAAACGACTCTG (sugars k3 d10 k3, PS) | 23% | 
GTTTTTAAGAGGCATG (sugars kkdddddddddkekek, PS) | 79% | target mRNA inhibition (0.02 µM): 15%; target mRNA inhibition (0.078 µM): 13%; target mRNA inhibition (0.313 µM): 12%; target mRNA inhibition (1.25 µM): 61%; target mRNA inhibition (5 µM): 71%
TAAGCAGAATTGTGAA (sugars k3 d10 k3, PS) | 35% | 
GAGACATGAGGTTTTG (sugars k3 d9 k3 e1, PS) | 61% | 
ATACATTAGCAAGCTA (sugars kkdddddddddkekek, PS) | 22% | 
GCTTAAATGTTTAACC (sugars k3 d10 k3, PS) | 67% | 
ATATCAATGCCTTAGC (sugars k3 d10 k3, PS) | 32% | 
TCCAAGGAGTGCATCT (sugars k3 d10 k3, PS) | 46% | 
TAAAAATTGGCCTCCT (sugars k3 d10 k3, PS) | 29% | 
GTTTAGCTGATAGGCT (sugars k3 d10 k3, PS) | 47% | 
TGAACAGTCTTAAACC (sugars k3 d1 m1 d8 k3, PS) | 57% | 

Sequence | target mRNA inhibition (1 µM) | further results
AATCCTATGCAAATTC (sugars k3 d10 k3, PS) | 42% | 
CTACAGAGGAGTTTGC (sugars k3 d10 k3, PS) | 27% | 
TTGAACAGTCTTAAAC (sugars kkdddddddddkekek, PS) | 37% | 
ACGATTGTTACATCAC (sugars k3 d10 k3, PS) | 53% | 
GCTCCATAATAATAGC (sugars kkdddddddddkekek, PS) | 15% | 
CTAAACATCTCTGGGA (sugars k3 d9 k3 e1, PS) | 57% | 
ACCAAACTTCCAGCAG (sugars k3 d1 m1 d8 k3, PS) | 54% | 
GTCCTTGTGTAGTCCT (sugars k3 d10 k3, PS) | 62% | 
CTGTAGGCTAAACCCT (sugars k3 d10 k3, PS) | 47% | 
GCTGCTAGTGCCAAAC (sugars k3 d1 m1 d8 k3, PS) | 39% | 
TACCTTATTAATATCC (sugars k3 d10 k3, PS) | 54% | 
AAATGTCCTAGGATGT (sugars k3 d10 k3, PS) | 36% | 
ATTCACCACGATTGTT (sugars k3 d10 k3, PS) | 0% | 
TGATGTAGTGGGAGTC (sugars k3 d10 k3, PS) | 65% | 
GCAGCTAAAATCCAAT (sugars k3 d10 k3, PS) | 70% | 
TCAATTTATCATACCA (sugars k3 d10 k3, PS) | 26% | 
TTGTTACATCACCCAC (sugars k3 d10 k3, PS) | 34% | 
TAGAGTGAATCATTCA (sugars k3 d10 k3, PS) | 75% | target mRNA inhibition (0.02 µM): 16%; target mRNA inhibition (0.078 µM): 33%; target mRNA inhibition (0.313 µM): 60%; target mRNA inhibition (1.25 µM): 84%; target mRNA inhibition (5 µM): 92%
CTTAAGATACCCAGGT (sugars kkdddddddddkekek, PS) | 34% | 
AAACATAGGCTTAGTG (sugars k3 d10 k3, PS) | 16% | 
CCAACGCAACAGTTTA (sugars k3 d10 k3, PS) | 77% | 
TTGCAGTTATTAGAAG (sugars kkdddddddddkekek, PS) | 27% | 
